Source: patent publication EP0359821A1, “METHOD OF STERILIZING PLANT ANTHERS” (priority 1988, dated 1989)

Experiments:
[1] = tested on: Diploider Roggen Sorte Kharkovskaya 55; assay: Field trial of gametocidal activity, diploid rye Kharkovskaya 55; conditions: 1% aqueous emulsion, 6 kg/ha
[2] = tested on: Winterweizens Sorte Mironovskaya 808; assay: Field trial of gametocidal activity (anther sterilisation), winter wheat; type: in vivo, Weizen; conditions: 2% aqueous emulsion, 20 kg/ha; for Anzahl von Körnern der Ähre bei freier Bestäubung / Anzahl von Körnern der Ähre im Isolator / percent sterility at 20000 g/ha: V. or VI. period of organogenesis; for percent sterility at 20000 g/ha: read-out: Prozentsatz der Sterilität; for response vs control in vivo at 20000 g/ha: control = 100, read-out: Prozentsatz des Ansetzens bei freier Bestäubung
[3] = tested on: Sommerweizen Sorte Moskovskaya 35; assay: Field trial of gametocidal activity, spring wheat; type: in vivo, Weizen; conditions: 1% aqueous emulsion; for Anzahl von Körnern der Ähre bei freier Bestäubung / Anzahl von Körnern der Ähre im Isolator / percent sterility at 10000 g/ha: V. period; for percent sterility at 10000 g/ha: read-out: Prozentsatz der Sterilität
[4] = tested on: Diploider Roggen Sorte Chulpan; assay: Field trial of gametocidal activity, diploid rye Chulpan; type: in vivo; conditions: single compounds, 1% aqueous emulsion, 10 kg/ha; for Anzahl von Körnern der Ähre bei freier Bestäubung / Anzahl von Körnern der Ähre im Isolator / percent sterility at 10000 g/ha: Chulpan; for percent sterility at 10000 g/ha: read-out: Prozentsatz der Sterilität; for response vs control in vivo at 10000 g/ha: read-out: Prozentsatz des Ansetzens bei freier Bestäubung, Chulpan, control = 100
From the text: Bei Weizen und Tritikale werden Einzelisolatoren verwendet.
Pflanzen von diploidem Roggen Sorte Chulpan werden in der V. oder VI.
Der Verbrauch an Sterilisationsmitteln beträgt 10 kg/ha.

[5] = tested on: Hirse Sorte K-9693 Kormovoe 1; assay: Field trial of gametocidal activity, millet K-9693 Kormovoe 1; conditions: 1% aqueous emulsion, 10 kg/ha; for Anzahl von Körnern der Rispe bei freier Bestäubung / Anzahl von Körnern der Rispe im Isolator / Prozentsatz der Sterilität: V. or VI. period; for Prozentsatz des Ansetzens bei freier Bestäubung: control = 100
in vivo = conditions: mouse
[6] = tested on: Diploider Roggen Sorte Gibrid 340/65; assay: Field trial of gametocidal activity, diploid rye Gibrid 340/65; conditions: Gibrid 340/65 (text: 312/65), 1% aqueous emulsion, 10 kg/ha; for Anzahl von Körnern der Ähre bei freier Bestäubung / Anzahl von Körnern der Ähre im Isolator / Prozentsatz der Sterilität: V. and VI. periods; for Prozentsatz des Ansetzens bei freier Bestäubung: control = 100
[7] = tested on: Tetraploider Roggen Sorte Belta; assay: Field trial of gametocidal activity, tetraploid rye Belta; type: in vivo; conditions: 1% aqueous emulsion, 10 kg/ha; for response vs control in vivo at 10000 g/ha: control = 100, read-out: Prozentsatz des Ansetzens bei freier Bestäubung
[8] = tested on: Hirse Sorte Mironovskoe 94; assay: Field trial of gametocidal activity, millet Mironovskoe 94; type: in vivo; conditions: 1% aqueous emulsion, 10 kg/ha
[9] = tested on: Sonnenblume Sorte Peredovik; assay: Field trial of pollen sterilisation, sunflower Peredovik; type: in vivo; conditions: 0,2% aqueous emulsion, 1,2 kg/ke (so in the source)
From the text: Pflanzen der Sonnenblume Sorte Peredovik werden in der V. oder VI.
Der Verbrauch an Sterilisationsmittel beträgt 1,2 kg/ke.

Sonnenblume Linie VK 119 = assay: Field trial of pollen sterilisation, sunflower line VK 119; conditions: 0,2% aqueous emulsion, 1,2 kg/ha
[10] = control = 100, read-out: Prozentsatz des Ansetzens bei freier Bestäubung
[11] = V. or VI. period, read-out: Prozentsatz der Sterilität

Row | Compound | Anzahl von Körnern der Ähre bei freier Bestäubung [2] | Anzahl von Körnern der Ähre im Isolator [2] | percent sterility at 20000 g/ha [2] | response vs control in vivo at 20000 g/ha [2] | Anzahl von Körnern der Ähre bei freier Bestäubung ([3]; 10 kg/ha) | Anzahl von Körnern der Ähre im Isolator ([3]; 10 kg/ha) | percent sterility at 10000 g/ha ([3]; 10 kg/ha) | Anzahl von Körnern der Ähre bei freier Bestäubung ([4]; V. or VI. period) | Anzahl von Körnern der Ähre im Isolator ([4]; V. or VI. period) | percent sterility at 10000 g/ha ([4]; V. or VI. period) | response vs control in vivo at 10000 g/ha [4] | Anzahl von Körnern der Rispe bei freier Bestäubung [5] | Anzahl von Körnern der Rispe im Isolator [5] | Prozentsatz der Sterilität [5] | Prozentsatz des Ansetzens bei freier Bestäubung [5] | LD50 (in vivo; LD50, weisse Mäuse) | Anzahl von Körnern der Ähre bei freier Bestäubung [6] | Anzahl von Körnern der Ähre im Isolator [6] | Anzahl von Körnern der Ähre im Isolator ([7]; V. or VI. period) | response vs control in vivo at 10000 g/ha [7] | further results
1 | OCC(O)COc1ccc(Cl)cc1Cl (stereo not shown) [Beispiel 6, 3-(2',4'-Dichlorphenoxy)-propandiol-I,2] | 35,0 | 0,8 | 97.9% | 86.4% | 26,0 | 0,1 | 99.9% |  |  |  |  |  |  |  |  |  |  |  |  |  | Anzahl von Körnern der Ähre bei freier Bestäubung ([1]; V. and VI. periods): 41,6; Anzahl von Körnern der Ähre im Isolator ([1]; V. and VI. periods): 0,0; Prozentsatz der Sterilität ([1]; V. and VI. periods): 100%; Prozentsatz des Ansetzens bei freier Bestäubung ([1]; control = 100): 90,2%; response vs control in vivo at 10000 g/ha ([3]; 10 kg/ha, control = 100, read-out: Prozentsatz des Ansetzens bei freier Bestäubung): 94.5%
2 | OCC(O)CSc1cccc(Cl)c1 (stereo not shown) [Beispiel 8, 3-(3'-Chlorphenylthio)-propandiol-1,2] | 32,7 | 2,6 |  | 80.7% | 24,6 | 0,8 | 99.7% | 52,1 | 0,0 | 100% | 91.9% | 100,8 | 0,0 | 100% | 68,7% | 400 mg/kg |  |  |  |  | response vs control in vivo [3, 10]: 89.5%
3 | O=[N+]([O-])c1ccc(OCC(O)CO)cc1 (stereo not shown) [Beispiel 9, 3-(4'-Nitrophenoxy)-propandiol-I,2] | 34,0 | 4,8 | 85.2% | 83.9% |  |  |  | 51,7 | 0,7 | 98.7% | 91.2% |  |  |  |  | 100 to 600 mg/kg | 45,0 | 0,0 | 0,0 | 89.6% | Prozentsatz der Sterilität [6]: 100%; Prozentsatz des Ansetzens bei freier Bestäubung [6]: 84,1%; Anzahl von Körnern der Ähre bei freier Bestäubung ([7]; V. or VI. period): 39,7; Anzahl von Körnern der Rispe bei freier Bestäubung ([8]; V. or VI. period): 311,6; Anzahl von Körnern der Rispe im Isolator ([8]; V. or VI. period): 0,0; percent pollen sterility at 10000 g/ha [8, 11]: 100%; response vs control in vivo at 10000 g/ha [8, 10]: 82.1%
4 | Nc1ccc(C(=O)O)cc1 [Beispiel 38, Äthanolaminsalz der p-Aminobenzoesäure] |  |  |  |  |  |  |  |  |  |  |  |  |  |  |  | 2850 mg/kg | 52,8 | 3,2 |  |  | Prozentsatz der Sterilität [6]: 93,4%; Prozentsatz des Ansetzens bei freier Bestäubung [6]: 97,8%
5 | OCCCl [Beispiel 45, 2-Chloräthanol] |  |  |  |  |  |  |  | 80,2 | 2,2 |  | 88.5% | 130,5 | 0,0 | 100% | 89,0% |  |  |  | 0,0 | 95.3% | Pollensterilität in % [9]: 100%; Ansetzen von Achänen bei freier Bestäubung in % ([9]; V. or VI. period): 83,9%; Ansetzen von Achänen im Isolator bei der Bestäubung mit dem Pollengemisch in % ([9]; V. or VI. period): 0,0%; pest or weed control at 10000 g/ha ([4]; read-out: Prozentsatz der Sterilität, Chulpan, V. or VI. period): 95.8%; Anzahl von Körnern der Ähre bei freier Bestäubung ([7]; V. or VI. period): 42,2; Ansetzen von Achänen bei freier Bestäubung in % (Sonnenblume Linie VK 119): 83,5%; Ansetzen von Achänen im Isolator bei der Bestäubung mit dem Pollengemisch in % (Sonnenblume Linie VK 119): 0,0%; Pollensterilität in % (Sonnenblume Linie VK 119): 100%; LD50 (in vivo): 580 mg/kg
6 | Nc1ccc(O)c(C(=O)O)c1 [Beispiel 51, Äthanolaminsalz der 5-Aminosalizylsäure] |  |  |  |  |  |  |  | 55,6 | 2,1 | 96% | 92.8% |  |  |  |  | 2400 mg/kg |  |  | I,I | 99.5% | percent sterility at 10000 g/ha [7, 11]: 97.3%
